Experimental data reported in US11130756B2, “[1,2,4]Triazolo[4,3-A]pyridinyl substituted indole compounds” (BRISTOL-MYERS SQUIBB COMPANY, priority 2017, dated 2021).

Legend:
Format in all cases: cell-based
human TLR7 = target: T1, human TLR7 (Homo sapiens, UniProt Q9NYK1); test: TLR7 inhibition reporter assay (HEK-Blue, SEAP); settings: HEK-Blue cells overexpressing human TLR7, gardiquimod 7.5 μM, 22 hour incubation
T1 construct: host or cells: HEK-Blue cells
T1 sequence (Q9NYK1 27-1049): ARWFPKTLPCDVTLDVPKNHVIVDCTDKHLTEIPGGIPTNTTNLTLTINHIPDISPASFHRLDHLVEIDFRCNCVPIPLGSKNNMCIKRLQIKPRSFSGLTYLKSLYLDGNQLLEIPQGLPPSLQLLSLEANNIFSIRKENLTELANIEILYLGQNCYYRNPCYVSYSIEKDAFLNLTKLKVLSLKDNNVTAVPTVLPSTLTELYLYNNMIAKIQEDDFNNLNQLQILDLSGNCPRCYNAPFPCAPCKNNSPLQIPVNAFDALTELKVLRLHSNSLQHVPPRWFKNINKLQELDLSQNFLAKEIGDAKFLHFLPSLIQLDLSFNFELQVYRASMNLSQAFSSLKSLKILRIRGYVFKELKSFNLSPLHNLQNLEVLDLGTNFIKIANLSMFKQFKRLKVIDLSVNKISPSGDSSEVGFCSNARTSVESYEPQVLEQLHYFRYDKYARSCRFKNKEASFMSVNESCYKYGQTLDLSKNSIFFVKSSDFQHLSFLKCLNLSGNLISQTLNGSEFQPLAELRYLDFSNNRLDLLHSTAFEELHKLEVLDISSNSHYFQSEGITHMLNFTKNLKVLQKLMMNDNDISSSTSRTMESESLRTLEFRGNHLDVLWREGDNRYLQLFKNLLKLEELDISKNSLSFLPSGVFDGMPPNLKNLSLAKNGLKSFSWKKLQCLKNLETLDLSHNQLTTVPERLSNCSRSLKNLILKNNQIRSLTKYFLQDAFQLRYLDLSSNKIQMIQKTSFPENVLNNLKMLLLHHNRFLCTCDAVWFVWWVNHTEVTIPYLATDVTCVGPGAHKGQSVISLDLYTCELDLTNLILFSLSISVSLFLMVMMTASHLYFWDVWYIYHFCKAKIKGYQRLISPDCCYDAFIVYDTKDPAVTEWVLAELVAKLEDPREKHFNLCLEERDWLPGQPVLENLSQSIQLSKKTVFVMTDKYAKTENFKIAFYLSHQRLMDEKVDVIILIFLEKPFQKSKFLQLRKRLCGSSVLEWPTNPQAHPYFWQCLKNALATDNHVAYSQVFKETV
Method: (§1) TLR7/8/9 Inhibition Reporter Assays
(§2) HEK-Blue™-cells (Invivogen) overexpressing human TLR7, TLR8 or TLR9 receptors were used for screening inhibitors of these receptors using an inducible SEAP (secreted embryonic alkaline phosphatase) reporter gene under the control of the IFN-β minimal promoter fused to five NF-κB and AP-1-binding sites. Briefly, cells are seeded into Greiner 384 well plates (15000 cells per well for TLR7, 20,000 for TLR8 and 25,000 for TLR9) and then treated with test compounds in DMSO to yield a final dose response concentration range of 0.05 nM-50 μM. After a 30 minute compound pre-treatment at room temperature, the cells are then stimulated with a TLR7 ligand (gardiquimod at a final concentration of 7.5 μM), TLR8 ligand (R848 at a final concentration of 15.9 μM) or TLR9 ligand (ODN2006 at a final concentration of 5 nM) to activate NF-κB and AP-1 which induce the production of SEAP. After a 22 hour incubation at 37° C., 5% CO2, SEAP levels are determined with the addition of HEK-Blue™ Detection reagent (Invivogen), a cell culture medium that allows for detection of SEAP, according to manufacturer's specifications. The percent inhibition is determined as the % reduction in the HEK-Blue signal present in wells treated with agonist plus DMSO alone compared to wells treated with a known inhibitor.

human TLR8 = target: T2, human TLR8 (Homo sapiens, UniProt Q9NR97); test: TLR8 inhibition reporter assay (HEK-Blue, SEAP); settings: HEK-Blue cells overexpressing human TLR8, R848 15.9 μM, 22 hour incubation
T2 construct: host or cells: HEK-Blue cells
T2 sequence (Q9NR97 27-1041): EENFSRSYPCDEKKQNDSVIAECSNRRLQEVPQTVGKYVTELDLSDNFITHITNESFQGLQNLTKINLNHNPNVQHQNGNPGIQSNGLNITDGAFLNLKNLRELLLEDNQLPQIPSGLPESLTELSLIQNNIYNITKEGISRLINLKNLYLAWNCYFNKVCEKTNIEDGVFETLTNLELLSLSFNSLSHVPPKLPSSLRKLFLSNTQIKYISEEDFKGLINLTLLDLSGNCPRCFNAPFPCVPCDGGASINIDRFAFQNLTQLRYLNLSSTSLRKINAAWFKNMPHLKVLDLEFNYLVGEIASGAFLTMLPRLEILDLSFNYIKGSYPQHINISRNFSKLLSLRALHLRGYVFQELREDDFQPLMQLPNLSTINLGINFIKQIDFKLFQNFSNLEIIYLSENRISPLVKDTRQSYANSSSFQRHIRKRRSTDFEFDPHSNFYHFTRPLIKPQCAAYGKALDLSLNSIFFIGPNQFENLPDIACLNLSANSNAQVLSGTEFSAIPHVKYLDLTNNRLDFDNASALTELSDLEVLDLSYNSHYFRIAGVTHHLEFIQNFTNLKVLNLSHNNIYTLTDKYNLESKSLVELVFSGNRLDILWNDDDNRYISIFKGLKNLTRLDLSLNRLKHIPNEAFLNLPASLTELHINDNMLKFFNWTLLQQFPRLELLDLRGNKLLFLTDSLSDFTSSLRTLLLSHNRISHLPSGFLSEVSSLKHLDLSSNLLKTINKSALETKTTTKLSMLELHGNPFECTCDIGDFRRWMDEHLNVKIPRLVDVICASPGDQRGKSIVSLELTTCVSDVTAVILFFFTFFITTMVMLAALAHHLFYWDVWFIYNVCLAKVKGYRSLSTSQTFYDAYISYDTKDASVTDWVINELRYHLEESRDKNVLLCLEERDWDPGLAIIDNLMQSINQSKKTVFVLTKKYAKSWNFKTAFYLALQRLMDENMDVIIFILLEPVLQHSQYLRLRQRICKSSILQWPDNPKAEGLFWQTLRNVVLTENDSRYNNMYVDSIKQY
Method: as §1, §2

human TLR9 = target: T3, human TLR9 (Homo sapiens, UniProt Q9NR96); test: TLR9 inhibition reporter assay (HEK-Blue, SEAP); settings: HEK-Blue cells overexpressing human TLR9, ODN2006 5 nM, 22 hour incubation
T3 construct: host or cells: HEK-Blue cells
T3 sequence (Q9NR96 26-1032): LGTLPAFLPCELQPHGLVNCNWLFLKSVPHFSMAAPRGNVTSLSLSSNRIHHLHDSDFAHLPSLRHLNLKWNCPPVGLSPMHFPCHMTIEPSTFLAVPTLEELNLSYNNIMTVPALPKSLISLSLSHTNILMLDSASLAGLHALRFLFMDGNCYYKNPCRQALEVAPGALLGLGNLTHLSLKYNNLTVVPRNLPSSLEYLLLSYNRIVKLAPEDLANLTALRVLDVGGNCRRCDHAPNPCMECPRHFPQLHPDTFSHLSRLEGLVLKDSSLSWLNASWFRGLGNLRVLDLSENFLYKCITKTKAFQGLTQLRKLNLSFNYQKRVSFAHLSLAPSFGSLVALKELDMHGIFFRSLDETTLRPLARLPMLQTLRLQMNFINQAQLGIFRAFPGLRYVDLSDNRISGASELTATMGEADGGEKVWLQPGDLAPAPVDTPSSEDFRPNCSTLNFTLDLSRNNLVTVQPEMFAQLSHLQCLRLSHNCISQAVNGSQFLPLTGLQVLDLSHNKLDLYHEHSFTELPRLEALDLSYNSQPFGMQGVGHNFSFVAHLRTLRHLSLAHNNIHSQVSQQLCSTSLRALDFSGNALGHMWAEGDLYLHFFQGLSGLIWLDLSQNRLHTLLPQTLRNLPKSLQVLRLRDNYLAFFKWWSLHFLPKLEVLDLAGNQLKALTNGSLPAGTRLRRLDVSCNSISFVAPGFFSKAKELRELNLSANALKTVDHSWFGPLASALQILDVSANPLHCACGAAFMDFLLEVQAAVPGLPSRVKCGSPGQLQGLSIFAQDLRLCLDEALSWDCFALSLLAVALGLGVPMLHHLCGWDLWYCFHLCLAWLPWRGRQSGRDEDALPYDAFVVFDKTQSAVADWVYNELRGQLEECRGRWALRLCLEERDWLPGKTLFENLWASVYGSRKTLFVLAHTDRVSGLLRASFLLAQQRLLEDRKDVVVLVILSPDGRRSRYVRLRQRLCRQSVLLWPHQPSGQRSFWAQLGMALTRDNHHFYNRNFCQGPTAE
Method: as §1, §2

Compound | IC50 (human TLR7) [nM] | IC50 (human TLR8) [nM] | IC50 (human TLR9) [nM]
1-(4-(3-isopropyl-2-(8-methoxy-5-methyl-[1,2,4]triazolo[4,3-a)pyridin-6-yl)-1H-indol-5-yl)piperidin-1-yl)-2-methylpropan-2-ol [Example 62] | 1.2 | 6.4 | 381
Cc1c(-c2[nH]c3ccc(C4CCN(C5CCOC5)CC4)cc3c2C(C)C)cn2cnnc2c1C (single isomer, unassigned) [Example 102, 6-(3-isopropyl-5-(1-(tetrahydrofuran-3-yl)piperidin-4-yl)-1H-indol-2-yl)-7,8-dimethyl-[1,2,4]triazolo[4,3-a]pyridine] | 3.9 | 8.2 | 5460
Cc1c(-c2[nH]c3ccc(C4CCN(C5CCOC5)CC4)cc3c2C(C)C)cn2cnnc2c1C (single isomer, unassigned) [Example 103, 6-(3-isopropyl-5-(1-(tetrahydrofuran-3-yl)piperidin-4-yl)-1H-indol-2-yl)-7,8-dimethyl-[1,2,4]triazolo[4,3-a]pyridine] | 5.1 | 11.7 | 10200
Cc1c(-c2[nH]c3ccc(C4CC(C)N(CCS(C)(=O)=O)C(C)C4)cc3c2C(C)C)cn2cnnc2c1C (single isomer, unassigned) [Example 110, 6-(5-(2,6-dimethyl-1-(2-(methylsulfonyl)ethyl)piperidin-4-yl)-3-isopropyl-1H-indol-2-yl)-7,8-dimethyl-[1,2,4]triazolo[4,3-a]pyridine] | 6.3 | 19.4 | 6630
Cc1c(-c2[nH]c3ccc(C4CC(C)N(CCS(C)(=O)=O)C(C)C4)cc3c2C(C)C)cn2cnnc2c1C (single isomer, unassigned) [Example 111, 6-(5-(2,6-dimethyl-1-(2-(methylsulfonyl)ethyl)piperidin-4-yl)-3-isopropyl-1H-indol-2-yl)-7,8-dimethyl-[1,2,4]triazolo[4,3-a]pyridine] | 23.9 | 113 | 19200
Cc1c(-c2[nH]c3ccc(C4CC(C)N(CC5(C)COC5)C(C)C4)cc3c2C(C)C)cn2cnnc2c1C (single isomer, unassigned) [Example 113, 6-(5-(2,6-dimethyl-1-((3-methyloxetan-3-yl)methyl)piperidin-4-yl)-3-isopropyl-1H-indol-2-yl)-7,8-dimethyl-[1,2,4]triazolo[4,3-a]pyridine] | 2.4 | 59.6 | 4830
Cc1c(-c2[nH]c3ccc(C4CC(C)N(CC5(C)COC5)C(C)C4)cc3c2C(C)C)cn2cnnc2c1C (single isomer, unassigned) [Example 114, 6-(5-(2,6-dimethyl-1-((3-methyloxetan-3-yl)methyl)piperidin-4-yl)-3-isopropyl-1H-indol-2-yl)-7,8-dimethyl-[1,2,4]triazolo[4,3-a]pyridine] | 13.7 | 226 | 7320
Cc1c(-c2[nH]c3ccc(C4C[C@H]5CC[C@@H](C4)N5)cc3c2C(C)C)cn2cnnc2c1C (single isomer, unassigned) [Example 116, 6-(5-(8-azabicyclo[3.2.1]octan-3-yl)-3-isopropyl-1H-indol-2-yl)-7,8-dimethyl-[1,2,4]triazolo[4,3-a]pyridine] | 9.9 | 102 | 1110
Cc1c(-c2[nH]c3ccc(C4C[C@H]5CC[C@@H](C4)N5)cc3c2C(C)C)cn2cnnc2c1C (single isomer, unassigned) [Example 117, 6-(5-(8-azabicyclo[3.2.1]octan-3-yl)-3-isopropyl-1H-indol-2-yl)-7,8-dimethyl-[1,2,4]triazolo[4,3-a]pyridine] | 31.6 | 494 | 6090
Cc1c(-c2[nH]c3ccc(C4C[C@H]5CC[C@@H](C4)N5CC(=O)N(C)C)cc3c2C(C)C)cn2cnnc2c1C (single isomer, unassigned) [Example 118] | 8.7 | 159 | 5460
Cc1c(-c2[nH]c3ccc(C4C[C@H]5CC[C@@H](C4)N5CC(=O)N(C)C)cc3c2C(C)C)cn2cnnc2c1C (single isomer, unassigned) [Example 119] | 12.9 | 103 | 1020
Cc1c(-c2[nH]c3ccc(C4C[C@H]5CC[C@@H](C4)N5CC4(C)COC4)cc3c2C(C)C)cn2cnnc2c1C (single isomer, unassigned) [Example 120] | 6.7 | 45.9 | 3800
